Results published in patent publication US7393846B2, “Heterocyclic compounds useful for the treatment of inflammatory and allergic disorders” (Glenmark Pharmaceuticals, S.A., priority 2003, dated 2008).
Where a name gives a salt, the structure may show the parent alone. Read-outs that look alike come from different tables or passages of the source.

What was measured:
PDE4 enzyme = test: Inhibition of Phosphodiesterase Enzymes (PDE4), [3H]cAMP hydrolysis assay; type: biochemical; details: PDE4 inhibition, 1 μM cAMP, 34° C., 20 minutes
Procedure: Inhibition of Phosphodiesterase Enzymes (PDE4)
In this assay, PDE4 enzyme converts [^3H] cAMP to the corresponding [^3H] 5′-AMP in proportion to the amount of PDE4 present. The [^3H] 5′-AMP then was quantitatively converted to free [^3H] adenosine and phosphate by the action of snake venom 5′-nucleotidase.
The assay was performed with modification of the method of Thompson and Appleman (Biochemistry; 1971; 10; 311-316) and Schwartz and Passoneau (Proc. Natl. Acad. Sci. U.S.A. 1974; 71; 3844-3848), both references incorporated herein by reference in their entirety, at 34° C. In a 200 ul total reaction mixture, the reaction mixture contained 12.5 mM of Tris, 5 mM MgCl2, 1 μM cAMP (cold) and ^3H cAMP (0.1 uCi), (Amersham). […] Drug samples were then added in the reaction mixture (25 μt/tube). The assay was initiated by addition of enzyme mix (75 μl) and the mixture was incubated for 20 minutes at 34° C. The reaction was stopped by boiling the tubes for 2 mins at 100° C. in a water bath. After cooling on ice for 5 minutes and addition of 50 ug/reaction of 5′-nucleotidase snake venom from Crotalus atrox incubation was carried out again for 20 min. at 34° C. The unreacted substrate was separated from (^3H) Adenosine by addition of Dowex AG 1-X8 (Biorad Lab), (400 ul) which was prequilibrated (1:1:1) in water and ethanol. Reaction mixture was then thoroughly mixed, placed on ice for 15 minutes, vortexed and centrifuged at 14,000 r.p.m. for 2 mins. After centrifugation, a sample of the supernatant was taken and added in 24 well optiplates containing Scintillant (1 ml) and mixed well. The samples in the plates were then determined for radioactivity in a Top Counter and the PDE4 activity was estimated. PDE4 enzyme was present in quantities that yield <30% total hydrolysis of substrate (linear assay conditions).
Results were expressed as percent inhibition (IC50) in nM concentrations. The IC50 values were determined from the concentration curves by nonlinear regression analysis.

PDE4 = test: EC50 of the PDE4 results table (method not given)

| Compound | IC50 (PDE4 enzyme) [nM] | EC50 (PDE4) [nM] | also measured |
| --- | --- | --- | --- |
| COc1ccc(C(=O)Nc2c(Cl)cncc2Cl)c2c1oc1ccc(NC(=O)OCC(F)(F)F)cc12 [Example 19, N-(3,5-dichloropyrid-4-yl)-4-methoxy-8-trifluoromethylmethoxycarboxamido-dibenzo[b,d]furan-1-carboxamide] | 4.79 | 9.01 |  |
| O=C(O)C(=O)Nc1ccc2oc3c(OC(F)F)ccc(C(=O)Nc4c(Cl)cncc4Cl)c3c2c1 [Example 39, N-(3,5-dichloropyrid-4-yl)-4-difluoromethoxy-8-hydroxycarbonylcarboxamido-dibenzo[b,d]furan-1-carboxamide disodium salt] |  |  | IC50 (PDE4 enzyme; disodium salt): 0.598 nM; EC50 (PDE4; disodium salt): 9.19 nM |
| COc1ccc(C(=O)Nc2c(Cl)cncc2Cl)c2c1oc1ccc(NC(=O)C(=O)O)cc12 [Example 10, N-(3,5-dichloropyrid-4-yl)-4-methoxy-8-hydroxycarbonylcarboxamido-dibenzo[b,d]furan-1-carboxamide sodium salt] |  |  | IC50 (PDE4 enzyme; sodium salt): 1.85 nM; EC50 (PDE4; sodium salt): 38.2 nM |
| O=C(Nc1ccc2oc3c(OC(F)F)ccc(C(=O)Nc4c(Cl)cncc4Cl)c3c2c1)c1ccco1 [Example 40, N-(3,5-dichloropyrid-4-yl)-4-difluoromethoxy-8-fur-2-ylcarboxamido-dibenzo[b,d]furan-1-carboxamide] | 22 | 11.3 |  |
| CN(C)S(=O)(=O)Nc1ccc2oc3c(OC(F)F)ccc(C(=O)Nc4c(Cl)cncc4Cl)c3c2c1 [Example 33, N-(3,5-dichloropyrid-4-yl)-4-difluoromethoxy-8-N,N-dimethylaminosulfonamido-dibenzo[b,d]furan-1-carboxamide] | 12.1 |  |  |
| CCCCNC(=S)Nc1ccc2oc3c(OC)ccc(C(=O)Nc4c(Cl)cncc4Cl)c3c2c1 [Example 45, N-(3,5-dichloropyrid-4-yl)-4-methoxy-8-(n-butylaminothiocarboxamido)-dibenzo[b,d]furan-1-carboxamide] | 0.773 | 6.37 |  |
| COc1ccc(C(=O)Nc2c(Cl)cncc2Cl)c2c1oc1ccc(NC(=O)NC3CCCC3)cc12 [Example 21, N-(3,5-dichloropyrid-4-yl)-4-methoxy-8-cyclopentylaminocarboxamido-dibenzo[b,d]furan-1-carboxamide] | 1.19 | 23.8 |  |
| COc1ccc(C(=O)Nc2c(Cl)cncc2Cl)c2c1oc1ccc(NCC(=O)O)cc12 [Example 53, N-(3,5-dichloropyrid-4-yl)-4-methoxy-8-(2-hydroxy-2-oxo-ethylamino)-dibenzo[b,d]furan-1-carboxamide] | 1.05 | 71.5 |  |
| CCCCCCNC(=O)Nc1ccc2oc3c(OC)ccc(C(=O)Nc4c(Cl)cncc4Cl)c3c2c1 [Example 27, N-(3,5-dichloropyrid-4-yl)-4-methoxy-8-n-hexylamino carboxamido-dibenzo[b,d]furan-1-carboxamide] | 3.4 | 4.16 |  |
| COc1ccc(C(=O)Nc2c(Cl)cncc2Cl)c2c1oc1ccc(NC(=O)OCC(C)C)cc12 [Example 16, N-(3,5-dichloropyrid-4-yl)-4-methoxy-8-isobutyloxycarboxamido-dibenzo[b,d]furan-1-carboxamide] | 63.6 |  |  |
| COc1ccc(C(=O)Nc2c(Cl)cncc2Cl)c2c3cc(NC(C)=O)ccc3n(C)c12 [Example 54, N-(3,5-dichloropyrid-4-yl)-1-methoxy-9-methyl-6-acetamido-9H-4-carbazolecarboxamide] | 237 |  |  |
| CCS(=O)(=O)Nc1ccc2oc3c(OC(F)F)ccc(C(=O)Nc4c(Cl)cncc4Cl)c3c2c1 [Example 32, N-(3,5-dichloropyrid-4-yl)-4-difluoromethoxy-8-ethanesulfonamido-dibenzo[b,d]furan-1-carboxamide] | 14.1 |  |  |
| COc1ccc(C(=O)Nc2c(Cl)c[n+]([O-])cc2Cl)c2c1oc1ccc(NS(C)(=O)=O)cc12 [Example 48, N-(3,5-dichloropyrid-4-yl)-4-methoxy-8-methanesulfonamido-dibenzo[b,d]furan-1-carboxamide-N-oxide] | 1.67 | 11.9 |  |
| COc1ccc(C(=O)Nc2c(Cl)cncc2Cl)c2c1oc1ccc(NC(=O)N3CCOCC3)cc12 [Example 25, N-(3,5-dichloropyrid-4-yl)-4-methoxy-8-(morphol-4-ylcarboxamido)-dibenzo[b,d]furan-1-carboxamide] | 5.07 | 8.9 |  |
| COc1ccc(C(=O)Nc2c(Cl)cncc2Cl)c2c1oc1ccc(NC(=O)N3CCN(C)CC3)cc12 [Example 23, N-(3,5-dichloropyrid-4-yl)-4-methoxy-8-(N-methylpiperazin-4-ylcarboxamido)-dibenzo[b,d]furan-1-carboxamide hydrochloride] |  |  | IC50 (PDE4 enzyme; hydrochloride): 3.78 nM; EC50 (PDE4; hydrochloride): 4.14 nM |
| CS(=O)(=O)Nc1ccc2oc3c(OC(F)F)ccc(C(=O)Nc4c(Cl)cncc4Cl)c3c2c1 [Example 30, N-(3,5-dichloropyrid-4-yl)-4-difluoromethoxy-8-methanesulfonamido-dibenzo[b,d]furan-1-carboxamide] | 1.63 | 3.59 |  |
| CCNC(=O)Nc1ccc2oc3c(OC)ccc(C(=O)Nc4c(Cl)cncc4Cl)c3c2c1 [Example 28, N-(3,5-dichloropyrid-4-yl)-4-methoxy-8-ethylamino carboxamido-dibenzo[b,d]furan-1-carboxamide] | 1.4 | 6.33 |  |
| O=C(Nc1c(Cl)cncc1Cl)c1ccc(OC(F)F)c2oc3ccc(NC(=O)C4CC4)cc3c12 [Example 36, N-(3,5-dichloropyrid-4-yl)-4-difluoromethoxy-8-cyclopropylcarboxamido-dibenzo[b,d]furan-1-carboxamide] | 4.64 | 8.44 |  |
| COc1ccc(C(=O)Nc2c(Cl)cncc2Cl)c2c1oc1ccc(N(C(=O)C3CC3)C(=O)C3CC3)cc12 [Example 13, N-(3,5-dichloropyrid-4-yl)-4-methoxy-8-(N,N-dicyclopropylcarbonylamino)-dibenzo[b,d]furan-1-carboxamide] | 74 |  |  |
| COc1ccc(C(=O)Nc2c(Cl)cncc2Cl)c2c1oc1ccc(NS(C)(=O)=O)cc12 [Example 01, N-(3,5-dichloropyrid-4-yl)-4-methoxy-8-methanesulfonamido-dibenzo[b,d]furan-1-carboxamide] | 0.506 | 8.57 |  |
| COc1ccc(C(=O)Nc2c(Cl)cncc2Cl)c2c1oc1ccc(NC(=O)NCC(=O)O)cc12 [Example 51, N-(3,5-dichloropyrid-4-yl)-4-methoxy-8-(2-hydroxy-2-oxo-ethylaminocarbonylamino)-dibenzo[b,d]furan-1-carboxamide] | 1.98 | 122 |  |
| COc1ccc(C(=O)Nc2c(Cl)cncc2Cl)c2c1oc1ccc(NS(=O)(=O)N(C)C)cc12 [Example 02, N-(3,5-dichloropyrid-4-yl)-4-methoxy-8-(N,N-dimethylsulphonamido)-dibenzo[b,d]furan-1-carboxamide] | 1.03 | 2.07 |  |
| CCOC(=O)C(=O)Nc1ccc2oc3c(OC(F)F)ccc(C(=O)Nc4c(Cl)cncc4Cl)c3c2c1 [Example 37, N-(3,5-dichloropyrid-4-yl)-4-difluoromethoxy-8-ethoxycarbonylcarboxamido-dibenzo[b,d]furan-1-carboxamide] | 21.5 | > 278 |  |
| COc1ccc(C(=O)Nc2c(Cl)cncc2Cl)c2c1oc1ccc(NC(=O)Oc3ccccc3)cc12 [Example 17, N-(3,5-dichloropyrid-4-yl)-4-methoxy-8-phenoxycarboxamido-dibenzo[b,d]furan-1-carboxamide] | 9.09 | 104 |  |
| COc1ccc(C(=O)Nc2c(Cl)cncc2Cl)c2c1oc1ccc(NC(=O)N3CCN(C)CC3)cc12 [Example 22, N-(3,5-dichloropyrid-4-yl)-4-methoxy-8-(N-methylpiperazin-4-ylcarboxamido)-dibenzo[b,d]furan-1-carboxamide] | 1.28 | 9.34 |  |
| CCOC(=O)C(=O)Nc1ccc2oc3c(OC)ccc(C(=O)Nc4c(Cl)cncc4Cl)c3c2c1 [Example 08, N-(3,5-dichloropyrid-4-yl)-4-methoxy-8-ethoxycarbonylcarboxamido-dibenzo[b,d]furan-1-carboxamide] | 4.68 | 110 |  |
| COc1ccc(C(=O)Nc2c(Cl)cncc2Cl)c2c1oc1ccc(NC(=O)C(=O)O)cc12 [Example 09, N-(3,5-dichloropyrid-4-yl)-4-methoxy-8-hydroxycarbonylcarboxamido-dibenzo[b,d]furan-1-carboxamide] | 1.03 | 138 |  |
| COc1ccc(C(=O)Nc2c(Cl)cncc2Cl)c2c1oc1ccc(NC(=O)NC(C)C)cc12 [Example 26, N-(3,5-dichloropyrid-4-yl)-4-methoxy-8-isopropylamino carboxamido-dibenzo[b,d]furan-1-carboxamide] | 15.6 |  |  |
